The values below come from ChEMBL document CHEMBL3352151, “In vitro and in vivo antibacterial evaluation and mechanistic study of ornithine based small cationic lipopeptides against antibiotic resistant clinical isolates” (Eur J Med Chem, 2014).

The structures appear in SMILES notation. Converted amounts (≈) assume the structure as drawn. The source made the active and inactive calls. No cut-off for these calls is given here.

Broadly, the mortality is the share of the test organisms that died.

In one series the test system is Enterococcus faecalis. Description: Antibacterial activity against clinical isolates of Enterococcus faecalis GMCH/B0091 after overnight incubation by microdilution broth assay. Type of series: functional. Background: Broth dilution looks for growth in wells or tubes with falling amounts of substance.
The next series deals with Plasma. Description: Drug degradation in human plasma at 1 ug/ml after 24 hrs by RP-HPLC analysis. Type of series: ADME, cell-free.
The test system of series [1] is Escherichia coli. Description: Antibacterial activity against Escherichia coli PGI/DML02292 infected in Swiss albino mouse assessed as log reduction at 5 mg/kg administered twice at 1 hr and 5 hrs post infection relative to control. In kind it is functional.
Series [2] can be described thus: Toxicity in albino mouse assessed as mortality at 5 mg/kg, iv. Also noted: dose 5 mg/kg, route intravenous. In kind it is organism-based. The settings on record: in vivo.
Series [3] has as its system Escherichia coli. Description: Binding affinity to Escherichia coli PGI/DML02292 DNA at 12 ug/ml after 1 hr by agarose gel electrophoresis.
The next series concerns Staphylococcus aureus. Description: Antibacterial activity against Staphylococcus aureus PGI/DML03149 infected in Swiss albino mouse assessed as log reduction at 10 mg/kg administered […] at 1 hr post infection relative to control. In kind it is functional.
Series [4] is described as follows: Membrane permeabilization activity assessed as release of calcein from liposomes at 1:50 lipopeptide:lipid molar ratio after 5 mins by fluorescence assay.
Series [5] concerns Escherichia coli. Description: Antibacterial activity against Escherichia coli PGI/DML02292 infected in Swiss albino mouse assessed as log reduction at 3 mg/kg administered twice at 1 hr and 5 hrs post infection relative to control. In kind it is functional.
In series [6] the test system is Escherichia coli. The experiment in a line: Antibacterial activity against Escherichia coli PGI/DML02292 infected in Swiss albino mouse assessed as log reduction at 10 mg/kg administered at 1 hr post infection relative to control. In kind it is functional.
Series [7] relates to Mus musculus. The experiment in a line: Toxicity in albino mouse assessed as mortality latency at 60 mg/kg, iv. In kind it is organism-based. Also noted: dose 60 mg/kg, route intravenous. The settings on record: in vivo.
The nature of series [8]: Membrane permeabilization activity assessed as release of calcein from liposomes at 1:10 lipopeptide:lipid molar ratio after 5 mins by fluorescence assay.
Series [9] concerns Mus musculus. Description: Toxicity in albino mouse assessed as mortality latency at 45 mg/kg, iv. The note with it: in vivo. Type of series: organism-based. Also noted: dose 45 mg/kg, route intravenous.
For series [10], the system named is Escherichia coli. The experiment in a line: Antibacterial activity against clinical isolates of imipenem-resistant Escherichia coli PGI/DML02292 after overnight incubation by microdilution broth assay. In kind it is functional.
Series [11] in a line: Toxicity in albino mouse assessed as mortality at 90 mg/kg, iv. In kind it is organism-based. The settings on record: in vivo. Also noted: dose 90 mg/kg, route intravenous.
Series [12] in a line: Toxicity in albino mouse assessed as mortality at 150 mg/kg, iv. The settings on record: in vivo. In kind it is organism-based. Also noted: dose 150 mg/kg, route intravenous.
For the next series, the system named is Haemophilus influenzae. Description: Antibacterial activity against clinical isolates of Haemophilus influenzae PGI/DML01751 after overnight incubation by microdilution broth assay. In kind it is functional.
The test system of series [13] is Escherichia coli. The experiment in a line: Induction of membrane damage in Escherichia coli PGI/DML02292 at 3 ug/ml after 30 mins by propidium iodide staining-based flow cytometry relative to control. In kind it is functional. Background: A flow cytometer gives signals particle by particle.
In series [14] the test system is Mus musculus. The experiment in a line: Toxicity in albino mouse assessed as piloerection at 75 mg/kg, iv measured for 14 days. Type of series: organism-based. More on the design: dose 75 mg/kg, route intravenous. The note with it: in vivo, 336 h.

Take `CCCCCCCCCCCCCC(=O)NC(CCCN)C(=O)NC(CCCN)C(=O)NC(CCCN)C(N)=O` (stereo not drawn): the MIC was 1.5 µg/mL (≈ 2.63 µM) against Enterococcus faecalis, 5.5 µg/mL (≈ 9.65 µM) in the series with Escherichia coli [10] and 4.5 µg/mL (≈ 7.9 µM) against Haemophilus influenzae. Besides, the Stability result in the series with Plasma is given as “Stable”. The FC in the series with Escherichia coli [1] was found to be 4.96; in the series on Staphylococcus aureus, 4.59; in the series with Escherichia coli [5], 3.83; in the series with Escherichia coli [6], 5.41. In addition, the mortality in series [2] turned out to be 0%; in [11], 60%; in series [12], 85%. In addition, the outcome in the series with Escherichia coli [3] was inactive. Moreover, the Activity is recorded as 51% in [4], 91% in series [8], 14% in the series on Escherichia coli [13] and “Toxic” in the series with Mus musculus [14]. The Time with Mus musculus [7] was more than 120 h; in the series with Mus musculus [9], more than 168 h.
